For one experiment, the target named is T1, integrin α 4β7 (Homo sapiens, UniProt P13612+P26010).
T1 construct: lymphoma cell strain RPMI-8866 of human B cells, known to express integrin α 4β7; endogenous in cells; host or cells: RPMI-8866 (human B lymphoma cell line)
T1 sequence (P13612 34-1032): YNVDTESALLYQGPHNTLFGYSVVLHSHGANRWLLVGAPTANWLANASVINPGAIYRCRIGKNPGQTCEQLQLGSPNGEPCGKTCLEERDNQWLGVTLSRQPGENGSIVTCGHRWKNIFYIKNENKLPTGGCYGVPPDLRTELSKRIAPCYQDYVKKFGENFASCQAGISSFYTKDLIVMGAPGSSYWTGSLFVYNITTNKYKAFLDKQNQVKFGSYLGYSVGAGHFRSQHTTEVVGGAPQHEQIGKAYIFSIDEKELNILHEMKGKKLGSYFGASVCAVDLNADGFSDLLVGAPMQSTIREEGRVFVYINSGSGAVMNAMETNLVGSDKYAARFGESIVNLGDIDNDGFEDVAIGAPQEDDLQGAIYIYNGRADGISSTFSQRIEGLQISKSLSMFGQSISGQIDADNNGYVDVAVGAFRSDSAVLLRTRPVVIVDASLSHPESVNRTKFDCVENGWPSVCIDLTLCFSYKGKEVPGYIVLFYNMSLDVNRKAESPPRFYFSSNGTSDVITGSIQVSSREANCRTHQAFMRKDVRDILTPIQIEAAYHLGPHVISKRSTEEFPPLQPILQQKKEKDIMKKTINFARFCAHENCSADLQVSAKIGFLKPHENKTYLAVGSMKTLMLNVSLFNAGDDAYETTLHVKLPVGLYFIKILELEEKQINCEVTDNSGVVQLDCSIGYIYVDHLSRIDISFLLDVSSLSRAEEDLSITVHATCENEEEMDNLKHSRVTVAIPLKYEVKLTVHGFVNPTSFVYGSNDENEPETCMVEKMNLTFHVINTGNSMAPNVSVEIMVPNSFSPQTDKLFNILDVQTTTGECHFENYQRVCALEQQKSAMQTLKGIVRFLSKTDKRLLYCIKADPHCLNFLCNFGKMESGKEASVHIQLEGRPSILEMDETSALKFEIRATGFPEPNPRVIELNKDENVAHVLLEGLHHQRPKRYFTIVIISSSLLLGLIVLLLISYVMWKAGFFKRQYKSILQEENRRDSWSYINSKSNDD
T1 sequence (P26010 20-798): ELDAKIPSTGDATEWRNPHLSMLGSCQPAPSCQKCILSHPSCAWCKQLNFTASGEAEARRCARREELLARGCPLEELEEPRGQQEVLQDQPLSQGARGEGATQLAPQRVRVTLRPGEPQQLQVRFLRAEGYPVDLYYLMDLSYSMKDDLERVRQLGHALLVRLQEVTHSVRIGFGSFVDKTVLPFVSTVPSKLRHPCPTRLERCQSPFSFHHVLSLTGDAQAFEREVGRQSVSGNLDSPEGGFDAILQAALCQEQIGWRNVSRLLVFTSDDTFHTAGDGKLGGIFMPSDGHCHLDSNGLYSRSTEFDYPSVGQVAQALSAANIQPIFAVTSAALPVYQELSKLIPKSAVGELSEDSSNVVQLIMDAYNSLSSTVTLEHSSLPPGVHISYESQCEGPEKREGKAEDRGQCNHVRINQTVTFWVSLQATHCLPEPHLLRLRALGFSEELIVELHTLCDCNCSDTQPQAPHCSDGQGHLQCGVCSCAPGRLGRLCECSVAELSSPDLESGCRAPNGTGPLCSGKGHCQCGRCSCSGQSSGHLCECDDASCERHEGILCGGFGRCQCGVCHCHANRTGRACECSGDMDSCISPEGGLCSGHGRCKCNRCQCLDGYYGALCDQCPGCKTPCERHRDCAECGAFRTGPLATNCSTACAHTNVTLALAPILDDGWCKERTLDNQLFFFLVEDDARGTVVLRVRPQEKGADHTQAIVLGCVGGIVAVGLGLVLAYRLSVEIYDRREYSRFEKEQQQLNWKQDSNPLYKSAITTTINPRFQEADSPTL
In words: VCAM antagonistic activity (VCAM-1/α4β7 binding assay), RPMI-8866 cells binding to VCAM-1. The settings on record: RPMI-8866 cells (human B cells) binding to recombinant human VCAM-1; binding buffer containing 4 mM of MnCl2; room temperature, 30 minutes; read-out: VCAM-1/α 4 β 7 linking antagonization activity IC50. It counts as cell-based. As to the method: (Test Example) VCAM Antagonistic Activity (VCAM-1/α4β7 Binding Assay):
The capacity of a test substance antagonistic to the binding of lymphoma cell strain RPMI-8866 of human B cells, known to express integrin α 4β7, to VCAM-1 was determined.
(§1) 100 μl/well of a solution (500 ng/ml) of recombinant human VCAM-1 (R & D systems) solution diluted with buffer A (0.1 M NaHCO3, pH 9.6) was added to a micro titer plate having 96 wells (Nunc Maxisorp). After the incubation at 4° C. overnight, unbound VCAM-1 was removed by washing once with PBS. After completion of the washing, a buffer (buffer B) obtained by diluting Block Ace® (Dainippon Pharmaceutical Co., Ltd.) with PBS to ¼ concentration was added in an amount of 150 μl/well. After the incubation at room temperature for 1 hour, buffer B was removed and the plate was washed with PBS once.
RPMI-8866 cells were incubated in DMEM containing 10 μg/ml of Calcein-AM (Wako Pure Chemical Industries, Ltd.) at 37° C. for 30 minutes to label with fluorescence. The cells were again suspended in a binding buffer (20 mM HEPES, DMEM containing 0.1% BSA) containing 4 mM of MnCl2.
(§2) 50 μl of a test substance of various concentrations obtained by the dilution with the binding buffer was added to the plate. Immediately thereafter, 50 μl (final volume: 100 μl/well) of the fluorescent RPMI-8866 cells (4×10^6 cells/ml) were added thereto, and they were incubated at room temperature for 30 minutes. After the shaking on a plate shaker (IKA MTS-4) at 800 rpm for 30 seconds, the solution was immediately removed to remove the unbound cells. The fluorescence quantity of the bound cells remaining in the wells was determined with a fluorescent plate reader (Wallac 1420 ARVO multi-label counter) (filter excitation wave length: 485 nm, emission wave length: 535 nm). The fluorescent strength thus obtained is proportional to the number of RPMI-8866 cells bound to VCAM-1 and remaining on the plate. The binding rate of each test material in various concentrations was determined while the fluorescent strength of the test material-free well was determined to be 100%. The concentration IC50 for the 50% binding inhibition was calculated.

The target of another experiment is T2, integrin α 4β1 (Homo sapiens, UniProt P05556+P13612).
T2 construct: cell strain Jurkat (ATCC TIB-152) of human T cells, known to express integrin α 4β1; host or cells: Jurkat (human T cell line)
T2 sequence (P05556 21-798, one chain of several): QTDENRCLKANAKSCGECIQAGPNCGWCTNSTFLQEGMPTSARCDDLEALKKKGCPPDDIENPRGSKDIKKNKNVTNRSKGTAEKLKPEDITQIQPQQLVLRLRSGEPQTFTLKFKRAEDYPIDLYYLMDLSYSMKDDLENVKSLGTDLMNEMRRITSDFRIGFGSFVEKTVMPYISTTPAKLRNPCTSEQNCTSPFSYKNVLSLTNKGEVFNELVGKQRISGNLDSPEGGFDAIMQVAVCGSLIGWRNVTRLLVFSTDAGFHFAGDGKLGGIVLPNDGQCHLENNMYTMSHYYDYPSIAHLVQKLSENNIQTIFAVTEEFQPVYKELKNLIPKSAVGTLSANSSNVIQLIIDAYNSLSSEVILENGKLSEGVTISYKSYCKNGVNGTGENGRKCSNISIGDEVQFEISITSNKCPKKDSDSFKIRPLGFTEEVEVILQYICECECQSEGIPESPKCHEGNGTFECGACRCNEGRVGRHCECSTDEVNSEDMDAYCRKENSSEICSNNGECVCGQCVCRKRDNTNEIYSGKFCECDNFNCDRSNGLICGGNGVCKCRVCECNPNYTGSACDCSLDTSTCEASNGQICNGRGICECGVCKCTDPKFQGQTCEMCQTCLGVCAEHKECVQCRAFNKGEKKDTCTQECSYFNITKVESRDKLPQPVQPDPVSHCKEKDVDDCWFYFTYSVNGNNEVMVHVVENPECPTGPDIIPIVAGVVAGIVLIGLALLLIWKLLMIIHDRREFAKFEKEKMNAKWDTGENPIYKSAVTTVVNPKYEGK
In words: VCAM antagonistic activity (VCAM-1/α4β1 binding assay), Jurkat cells binding to VCAM-1. It is filed as cell-based. The settings on record: Jurkat cells (human T cells) binding to recombinant human VCAM-1; room temperature, 30 minutes; read-out: VCAM-1/α 4 β 1 linking antagonization activity IC50. As to the method: (Test Example) VCAM Antagonistic Activity (VCAM-1/α4β1 Binding Assay):
The capacity of a test substance antagonistic to the binding of cell strain Jurkat (ATCC TIB-152) of human T cells, known to express integrin α 4β1, to VCAM-1 was determined.
as §1
Jurkat cells were washed with Dulbecco modified Eagle medium (SIGMA, hereinafter referred to as “DMEM”) twice and then incubated in DMEM containing 10 μg/ml of Calcein-AM (Wako Pure Chemical Industries, Ltd.) at 37° C. in dark place for 30 minutes to label with fluorescence. The cells were again suspended in a binding buffer (20 mM HEPES, DMEM containing 0.1% BSA).
as §2, with “Jurkat” for “RPMI-8866”

Take `CC(C)NCCN(c1ccc([N+](=O)[O-])c(C(=O)NC(Cc2ccc(OCc3c(Cl)cccc3Cl)cc2)C(=O)O)c1)C(C)C` (stereo not shown) [Example 2, N-(3-(N-isopropylaminoethyl-N′-isopropyl)amino-6-nitrobenzoyl)-O-(2,6-dichlorobenzyl)tyrosine]: the IC50 at integrin α 4β7 worked out at 100 nM; at integrin α 4β1, 4 µM.
On to `CC(C)NCCCN(c1ccc([N+](=O)[O-])c(C(=O)NC(Cc2ccc(OCc3c(Cl)cccc3Cl)cc2)C(=O)O)c1)C(C)C` (stereo not shown) [Example 3], for which the results for the IC50 at integrin α 4β7 and at integrin α 4β1 were 120 nM and 5.5 µM, respectively.
The like results for `CCCNCCCCN(CCC)c1ccc([N+](=O)[O-])c(C(=O)NC(Cc2ccc(OCc3c(Cl)cccc3Cl)cc2)C(=O)O)c1` (stereo not shown) [Example 4] were, in that order, 120 nM and 3.7 µM.
The like results for `CC1CN(c2ccc([N+](=O)[O-])c(C(=O)NC(Cc3ccc(OCc4c(Cl)cccc4Cl)cc3)C(=O)O)c2)C(C)CN1` (stereo not shown) [Example 5] were, in that order, 140 nM and 4.9 µM.
In the case of `CCNC/C=C/CN(CC)c1ccc([N+](=O)[O-])c(C(=O)NC(Cc2ccc(OCc3c(Cl)cccc3Cl)cc2)C(=O)O)c1` (stereo not shown) [Example 6], the IC50 was determined as 150 nM at integrin α 4β7 and 4.8 µM at integrin α 4β1.
Turning to `CCNCCN(CC)c1ccc([N+](=O)[O-])c(C(=O)NC(Cc2ccc(OCc3c(Cl)cccc3Cl)cc2)C(=O)O)c1` (stereo not shown) [Example 7], the IC50 at integrin α 4β7 was 160 nM; at integrin α 4β1, 9.4 µM.
The like results for `O=C(NC(Cc1ccc(OCc2c(Cl)cccc2Cl)cc1)C(=O)O)c1cc(N2CCNCC2)ccc1[N+](=O)[O-]` (stereo not shown) [Example 8] were, in that order, 750 nM and 4 µM.
Taken in the same sequence, the figures for `CCCN(C)c1ccc([N+](=O)[O-])c(C(=O)NC(Cc2ccc(OCc3c(Cl)cccc3Cl)cc2)C(=O)O)c1` (stereo not shown) [Example 12] were 360 nM and 4.1 µM.
Taken in the same sequence, the figures for `O=C(NC(Cc1ccc(OCc2c(Cl)cccc2Cl)cc1)C(=O)O)c1cc(N2CCOCC2)ccc1[N+](=O)[O-]` (stereo not shown) [Example 18] were 140 nM and 2.2 µM.
On to `O=C1CCN(c2ccc([N+](=O)[O-])c(C(=O)NC(Cc3ccc(OCc4c(Cl)cccc4Cl)cc3)C(=O)O)c2)CC1` (stereo not shown) [Example 21], for which the results for the IC50 at integrin α 4β7 and at integrin α 4β1 were 160 nM and 3.3 µM, respectively.
Taken in the same sequence, the figures for `O=C(NC(Cc1ccc(OCc2c(Cl)cccc2Cl)cc1)C(=O)O)c1cc(N2CCC(O)CC2)ccc1[N+](=O)[O-]` (stereo not shown) [Example 22] were 220 nM and 4.6 µM.
Taken in the same sequence, the figures for `CN(CCO)c1ccc([N+](=O)[O-])c(C(=O)NC(Cc2ccc(OCc3c(Cl)cccc3Cl)cc2)C(=O)O)c1` (stereo not shown) [Example 23] were 66 nM and 2.2 µM.
On to `O=C(NC(Cc1ccc(OCc2c(Cl)cccc2Cl)cc1)C(=O)O)c1ccc(N2CCNCC2)c([N+](=O)[O-])c1` (stereo not shown) [Example 25], for which the IC50 on integrin α 4β7 worked out at 750 nM; on integrin α 4β1, 4 µM.
Taken in the same sequence, the figures for `CC(C)NCCN(c1ccc([N+](=O)[O-])c(C(=O)NC(Cc2ccc(NC(=O)c3snnc3-c3ccccc3)cc2)C(=O)O)c1)C(C)C` (stereo not shown) [Example 26] were 37 nM and 2.4 µM.
Turning to `CSc1ncc(Cl)c(C(=O)Nc2ccc(CC(NC(=O)c3cc(N(CCNC(C)C)C(C)C)ccc3[N+](=O)[O-])C(=O)O)cc2)n1` (stereo not shown) [Example 27], the IC50 at integrin α 4β7 worked out at 1.2 nM; at integrin α 4β1, 0.027 µM.
The like results for `CSc1ncc(Cl)c(C(=O)Nc2ccc(C[C@H](NC(=O)c3cc(N(CCNC(C)C)C(C)C)ccc3[N+](=O)[O-])C(=O)O)cc2)n1` [Example 28] were, in that order, 1.1 nM and 0.023 µM.
Taken in the same sequence, the figures for `CSc1ncc(Cl)c(C(=O)Nc2ccc(C[C@H](NC(=O)c3cc(N(CCN(C(C)=O)C(C)C)C(C)C)ccc3[N+](=O)[O-])C(=O)O)cc2)n1` [Example 30] were 5.3 nM and 0.087 µM.

(Values after US7105520B2, “Phenylalanine derivatives” (Ajinomoto Co., Inc., priority 2000, dated 2006).)
